The assay deals with T1, Interstitial collagenase (Homo sapiens, UniProt P03956).
T1 sequence (P03956 whole entry): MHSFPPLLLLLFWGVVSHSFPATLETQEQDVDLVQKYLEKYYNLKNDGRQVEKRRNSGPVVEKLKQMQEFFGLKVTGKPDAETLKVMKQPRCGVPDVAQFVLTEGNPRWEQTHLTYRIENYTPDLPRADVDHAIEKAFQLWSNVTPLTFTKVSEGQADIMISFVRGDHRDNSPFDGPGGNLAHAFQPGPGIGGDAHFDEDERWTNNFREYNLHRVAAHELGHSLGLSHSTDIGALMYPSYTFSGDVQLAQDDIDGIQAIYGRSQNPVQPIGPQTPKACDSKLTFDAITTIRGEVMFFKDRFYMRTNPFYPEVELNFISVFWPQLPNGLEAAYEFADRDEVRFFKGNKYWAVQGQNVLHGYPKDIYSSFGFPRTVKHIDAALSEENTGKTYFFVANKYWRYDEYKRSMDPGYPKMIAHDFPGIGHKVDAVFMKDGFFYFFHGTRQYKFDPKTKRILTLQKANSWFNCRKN
Briefly: Inhibitory activity against matrix metalloprotease-1; No activity upto solubility limit.

Some results are limits rather than exact numbers.

For `C=C[C@@H]1OC(c2ccc(Br)cc2)=N[C@H]1Sc1ccccc1` [(4S,5S)-2-(4-Bromo-phenyl)-4-phenylsulfanyl-5-vinyl-4,5-dihydro-oxazole], the Ki was > 30 µM.

What is called Ki is a dissociation constant, usually derived from enzyme kinetics or from competition with a known ligand. The low end stands for tighter binding, the high end for weaker binding.

These data come from BindingDB's records for doi:10.1016/j.bmcl.2004.07.023 (North Dakota State University, 2004).
